The source of these data is the supplement of paper PMC6723410.

One assay concerns GUMC-403. The assay is described as follows: viability at highest tested concentration (max response) relative to DMSO (% of DMSO control); higher = less cytotoxic. As to conditions: library / dose series: MIPE library, 11-point 1:3 dilution; top concentration 23 µM; 48 h. The method, boiled down:
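In 1536-well plates, 700 GUMC-403 papilloma cells per well, taken from a patient and grown by conditional reprogramming, were seeded in 5 μL F + Y medium and incubated overnight at 37 °C. Compounds were pinned in at 23 nL in an 11-point 1:3 series, and left for 48 h before CellTiter-Glo luminescence was read on a ViewLux against vehicle (100%) and empty (0%) wells. Reported values are viability at the highest tested concentration relative to vehicle control.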
The compound `C[C@]\12CC[C@H](O)CC1=C/C[C@@H]3[C@@H]2CC[C@@]\4(C)[C@H]3C\C=C4C5=CN=CC=C5` came in with a viability of 110.

The same assay, now with this note: library / dose series: MIPE library, 11-point 1:3 dilution; top concentration 46.1 µM; 48 h.
`Cc1cccc(N(C)C(=S)Oc2ccc3ccccc3c2)c1` yielded a viability of 139.

`N#C/C(=C(/N)Sc1ccc(N)cc1)c1ccccc1C(F)(F)F` showed a viability of 87.9.

In turn, `CNC(=O)c1c(F)cccc1Nc1nc(Nc2cc3c(cc2OC)CCN3C(=O)CN(C)C)nc2[nH]ccc12` gave a viability of 84.8.

As to `CCc1ccc(C(=O)Nc2cc(CN3CCN(C)CC3)cc(C(F)(F)F)c2)cc1C#Cc1cnc2ccnn2c1`, the viability was 119.

Compound `CC1(C)CCC[C@]2(C)[C@H]3CC(=O)O[C@]3(C)CC[C@@H]12` yielded a viability of 96.

For the compound `Cc1ccccc1N1C(=O)c2cc([S+](N)(=O)[O-])c(Cl)cc2NC1C` (stereo not given), the viability stood at 105.

In turn, `CC(C)(C)NC(=O)[C@@H]1CN(Cc2cccnc2)CCN1C[C@@H](O)C[C@@H](Cc1ccccc1)C(=O)N[C@H]1c2ccccc2C[C@H]1O.O=S(=O)(O)O` showed a viability of 130.

`C#CCN(C)[C@H](C)Cc1ccccc1` returned a viability of 92.4.

The compound `C[C@]\1(CCS\C(=N1)N)C2=CC(=C(F)C=C2F)C3=CN=CN=C3` showed a viability of 80.2.

Compound `Cc1ccnc2c1NC(=O)c1cccnc1N2C1CC1` came in with a viability of 138.

The compound `Cc1cc(O)c2c(c1)C(=O)c1cc(O)cc(O)c1C2=O` returned a viability of 114.

Compound `Oc1ccc2c3c1O[C@H]1c4[nH]c5c(c4C[C@@]4(O)[C@@H](C2)N(CC2CC2)CC[C@]314)C[C@@]1(O)[C@H]2Cc3ccc(O)c4c3[C@@]1(CCN2CC1CC1)[C@H]5O4` came in with a viability of 142.

For `CCc1ccc(/C=C2/SC(=S)NC2=O)cc1`, the viability amounted to 106.

Take `CNC(=O)N1\N=C(\C2=CC=C(N)C=C2)C3=CC4=C(OCO4)C=C3CC1C` (stereo not given): the viability turned out to be 107.

Regarding `N=C(N)Nc1ccc(C(=O)Oc2ccc3cc(C(=N)N)ccc3c2)cc1`, the viability came out at 86.1.

On to `COc1ccc2c(c1OC)C(=O)O[C@H]2[C@H]1c2c(cc3c(c2OC)OCO3)CCN1C`, for which the viability is 103.

The compound `CN(C)CCOc1ccc(-c2nc(-c3ccncc3)c(-c3ccc4c(c3)CC/C4=N\O)[nH]2)cc1` displayed a viability of 94.9.

Compound `CC[C@H](CO)Nc1nc(NCc2ccccc2)c2ncn(C(C)C)c2n1` showed a viability of 42.6.

`CN(C[C@@H]1COCCO1)[S+]([O-])(=O)NC2=CC3=C(C=C2)\C=C/C4=C(C=C(C=N4)C5=C[N](C)N=C5)C3=O`: the viability amounted to 114.

The compound `O=C(O[C@H]1C[C@H]2CC[C@@H](C1)[N+]21CCCC1)C(O)(c1ccccc1)c1ccccc1.[Cl-]` had a viability of 140.

Compound `O=C1N\C=N/C2=C1C=N[NH]2` had a viability of 106.

With `CC1=C(C)C2=C(S1)[N]3C(=NN=C3[C@H](CC(=O)OC(C)(C)C)/N=C2/C4=CC=C(Cl)C=C4)C`, the viability was found to be 65.

`O=C(Nc1c(Cl)cncc1Cl)c1ccc(OC(F)F)c(OCC2CC2)c1` registered a viability of 125.

The compound `CO[C@@H]1C(N(C)C(=O)c2ccccc2)C[C@H]2O[C@]1(C)n1c3ccccc3c3c4c(c5c6ccccc6n2c5c31)C(=O)NC4=O` (stereo not given in full) had a viability of 76.6.

In turn, `N#Cc1ccc(COC[C@H]2O[C@@H](n3c(NCc4ccc(Cl)c(Cl)c4)nc4c(N)ncnc43)[C@H](O)[C@@H]2O)cc1` returned a viability of 89.

The compound `CC(C)Nc1cc(C(F)(F)F)cc2nc(NC(=O)c3cccnc3)nn12` gave a viability of 113.

`Cc1cc(Nc2nc(N[C@@H](C)c3ncc(F)cn3)ncc2Cl)n[nH]1`: the viability was found to be 163.

Turning to `Cc1ccc(Nc2cc(-c3cccc(N4C(=O)c5ccccc5C4=O)c3)ncn2)cc1N[S+](C)(=O)[O-]`, the viability was found to be 117.

Compound `CC[C@H]1OC(=O)[C@H](C)C(=O)[C@H](C)[C@@H](O[C@H]2O[C@H](C)C[C@H](N(C)C)[C@H]2O)[C@](C)(OC)C[C@@H](C)C(=O)[C@H](C)[C@H]2N(CCCCn3cnc(-c4cccnc4)c3)C(=O)O[C@]12C` gave a viability of 102.

For the compound `CC/C(=C(\c1ccccc1)c1ccc(OCCN(C)C)cc1)c1ccccc1`, the viability came out at 96.

With `CCC(=O)OC1CCC2C3CCC/4=C/C(=O)CC[C@@]4(C)C3CC[C@]12C` (stereo not given in full), the viability was found to be 130.

`COc1ccc(C2CNC(=O)C2)cc1OC1CCCC1` (stereo not given) registered a viability of 136.

`CO[C@@H]1[C@@H](O)[C@H](O)[C@@H](n2c3c(Cl)cccc3c3c4c(c5c6cccc(Cl)c6[nH]c5c32)C(=O)NC4=O)O[C@H]1CO`: the viability was 112.

In the case of `OC(=O)C1=CC=C(NC2=NC3=C(C\N=C(/C4=CC(=CC=C34)Cl)C5=C(F)C=CC=C5F)C=N2)C=C1`, the viability was 131.

Consider `CC12CC3CC(C)(C1)CC(N)(C3)C2`, for which the viability was found to be 117.

Consider `Cc1[nH]c(/C=C2\C(=O)Nc3ccc([S+](=O)([O-])Cc4c(Cl)cccc4Cl)cc32)c(C)c1C(=O)N1CCC[C@@H]1CN1CCCC1`, for which the viability came out at 113.

`O=C/1NC(=O)C(=C1C2=CN=C3C=CC=C[N]23)/C4=C[N]5CCN(CC6=C5C4=CC=C6)C(=O)N7CCOCC7`: the viability turned out to be 60.5.

As to `COC(=O)C/1=C/O[C@@H](O)[C@H]\2[C@@H]1C\C=C2CO`, the viability amounted to 94.5.

On to `CC1(C)O[C@H]2CC(=O)OC[C@]23[C@H]2CC[C@@]4(C)[C@H](c5ccoc5)OC(=O)[C@H]5O[C@]54[C@]2(C)C(=O)C[C@@H]13`, for which the viability was 139.

Compound `COC(=O)C1=C(C)NC(C)=C(C(=O)OCCN2CCN(C(c3ccccc3)c3ccccc3)CC2)C1c1cccc([N+](=O)[O-])c1.Cl.Cl` (stereo not given) gave a viability of 86.5.

In turn, `COc1cc2c(NC3CCN(C(C)C)CC3)nc(C3CCCCC3)nc2cc1OCCCN1CCCC1` registered a viability of 82.3.

`C1CCN2C[C@H]3C[C@H](\C=C/4CCCN[C@@H]34)[C@H]2C1` showed a viability of 120.

The compound `CN(C)c1ccc(Nc2nc(N)n(C(=O)c3c(F)cccc3F)n2)cc1` came in with a viability of 103.

Compound `Cn1c(Nc2ccc(C(F)(F)F)cc2)nc2cc(Oc3ccnc(-c4nc(C(F)(F)F)c[nH]4)c3)ccc21` came in with a viability of 92.4.

`O=C(O)C(=O)c1cn(Cc2ccccc2)c2ccc(-c3ccc(OC(F)(F)F)cc3)cc12` returned a viability of 111.

In turn, `CNC(=O)c1cc(Oc2ccc(NC(=O)Nc3cc(C(C)(C)C)nn3-c3ccc4ncccc4c3)c(F)c2)ccn1` gave a viability of 83.8.

`OC1=CC=C(C=C1)\C2=C(O)\C(=O)C3=C(O2)C=C(O)C=C3O` yielded a viability of 160.

The compound `CCC(c1ccc(O)cc1)C(CC)c1ccc(O)cc1` (stereo not given) came in with a viability of 116.

Turning to `COc1cc([C@@H]2c3cc4c(cc3[C@H](O)[C@H]3COC(=O)[C@H]23)OCO4)cc(OC)c1OC`, the viability was 115.

On to `CC(C)(O)[C@H]1CC[C@@](C)([C@H]2[C@@H](O)C[C@@]3(C)[C@@H]4C[C@H](O[C@@H]5O[C@H](CO)[C@@H](O)[C@H](O)[C@H]5O)[C@H]5C(C)(C)[C@@H](O[C@@H]6OC[C@@H](O)[C@H](O)[C@H]6O)CC[C@@]56C[C@@]46CC[C@]23C)O1`, for which the viability turned out to be 119.

`NC(=O)c1cccc2nc(-c3ccc([C@H]4CCCN4)cc3F)[nH]c12` yielded a viability of 116.

Turning to `c1ccc(-c2oc3ncnc(NC[C@@H]4CCCO4)c3c2-c2ccccc2)cc1`, the viability was 100.

`Nc1cccc2c1C(=O)N(C1CCC(=O)NC1=O)C2=O` (stereo not given) showed a viability of 107.

`Cn1cc(-c2cnn3c(N)c(Br)c([C@H]4CCCNC4)nc23)cn1` showed a viability of 100.

`Nc1ncnc2c1c(-c1cccc(OCc3ccccc3)c1)cn2C1CC(CN2CCC2)C1` (stereo not given) had a viability of 98.4.

The compound `CN1CC(=O)\N=C1\NC(=O)NC2=CC(=CC=C2)Cl` registered a viability of 91.6.

In the case of `O=C(CS(=O)Cc1ccco1)NC/C=C\COc1cc(CN2CCCCC2)ccn1` (stereo not given), the viability was 128.

Compound `O=C1Nc2cc(Br)ccc2/C1=C1/Nc2ccccc2/C1=N\O` registered a viability of 31.3.

On to `CC[C@]12\C=C/CN3CC[C@]4([C@@H](N(C)C5=CC(=C(C=C45)[C@]6(C[C@H]7C[C@H](CN(C7)CC8=C6[NH]C9=C8C=CC=C9)C(C)(F)F)C(=O)OC)OC)[C@](O)([C@@H]1OC(C)=O)C(=O)OC)[C@H]23`, for which the viability was found to be 85.

Regarding `CN(C)CCOC(c1ccccc1)c1ccccc1`, the viability came out at 120.

In turn, `C=CC(=O)N1CCC[C@@H](n2nc(-c3ccc(Oc4ccccc4)cc3)c3c(N)ncnc32)C1` returned a viability of 83.3.

On to `CSC1=CC(=CC=C1)NC2=NC3=C(C=N2)/C=C(C(=O)N3C)/C4=C(Cl)C=CC=C4Cl`, for which the viability came out at 107.

Compound `OC(=O)CNC(=O)\C1=C(/O)C2=CC=CC=C2N(CC3=CC=CC=C3)C1=O` showed a viability of 108.

Regarding `COC/1=C/[C@@H]2[C@@H]3CC4=C(C(=C(OC)C=C4)O)[C@]2(CCN3C)CC1=O`, the viability was found to be 65.

Take `O=C1N(c2ccccc2)c2ccccc2C1(Cc1ccncc1)Cc1ccncc1`: the viability amounted to 108.

The compound `C=CCc1cccc(/C=N/NC(=O)CN2CCN(Cc3ccccc3)CC2)c1O` returned a viability of 73.5.

For `CC1=CC=C(C=C1)\C2=N\C3=CC=C(Cl)C=C3OC2`, the viability was 128.

Staying with this assay, now noted: library / dose series: MIPE library, 11-point 1:3 dilution; top concentration 92.2 µM; 48 h.
In the case of `S=C(NCc1ccc2c(c1)OCO2)N1CCN(c2ncnc3c2oc2ccccc23)CC1`, the viability was found to be 100.

`O=C(/C=C/c1cccc([S+](=O)([O-])Nc2ccccc2)c1)NO` displayed a viability of 87.7.
